# Source: US20120213805A1, “Amatoxin-Armed Tartget-Binding Moieties for the Treatment of Cancer” (priority 2009, published 2012)
# T1: epithelial cell adhesion molecule (EpCAM) (human, UniProt P16422 24-314)
# T1 construct: whole, on cells; also called CD326; EpCAM antigen
# T1 sequence (looked up): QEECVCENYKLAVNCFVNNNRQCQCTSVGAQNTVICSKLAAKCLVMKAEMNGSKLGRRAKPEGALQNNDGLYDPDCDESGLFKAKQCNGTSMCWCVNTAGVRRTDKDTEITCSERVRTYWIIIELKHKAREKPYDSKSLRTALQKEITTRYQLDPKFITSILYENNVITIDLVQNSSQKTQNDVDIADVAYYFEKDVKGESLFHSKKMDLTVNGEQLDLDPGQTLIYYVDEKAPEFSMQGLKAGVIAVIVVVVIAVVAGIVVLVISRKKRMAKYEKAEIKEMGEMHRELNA
# B1: chimeric antibody huHEA125 (antibody, human IgG1, kappa, V domains shown)
# VH: EVKLLESGGGLVQPGGSLKLSCAASGFDFSRFWMTWVRQAPGKGLEWIGEINLDSSTINYTPSLKDKFIISRDNAKNTLFLQMSKVRSEDTALYYCSRGISMDYWGQGTSVTVSS
# VL: DILLTQSPAILSVSPGERVSFSCRASQSIGISLHWYQQRPSDSPRLLIKYASESISGIPSRFSGSGSGTDFTLSINSVESEDIADYYCQQSNIWPTTFGAGTKLELKR
# notes: also called unmodified huHEA125 antibody; non-conjugated huHEA125 antibody
# Key:
# PC-3 tumor xenografts = assay: PC-3 xenograft mouse tumor model; format: in vivo, NOD/SCID mice
# Description: (§1) Five- to six-week old immunodeficient NOD/SCID mice were used for all experiments. BxPC-3 pancreatic or PC-3 prostate tumor cells (5×10^6 in 100 pi PBS) were transplanted subcutaneously to the right flank of the mice. Ten days later, when BxPC-3 tumors reached a volume of 30-80 mm^3 and PC-3 tumors reached a volume of 40-190 mm^3, the treatment was initiated. Animals received either control huHEA125 mAb at a dose of 15 mg/kg or huHEA125-amanitin conjugate (huHEA125-Ama) at a dose of 50 μg/kg of amanitin. Antibody and conjugate were administered as a single intraperitoneal injection.
# (§2) Tumor growth was monitored for 16 days after initiation of the treatment. Tumor size was measured externally every third day using a caliper. Tumor volume was calculated according to the formula: V=π/6*a*b*c, where a, b and c are diameters in three dimensions. Data are presented as a relative tumor size/volume increase from the time of antibody administration.
# BxPC-3 tumor xenografts = assay: BxPC-3 xenograft mouse tumor model; format: in vivo, NOD/SCID mice
# Description: as §1, §2
# RNA-polymerase II = RNA-polymerase II (Homo sapiens, UniProt P24928); details: not covalently bound; read-out: KD of complex between amanitin and RNA-polymerase II; cited from earlier work
# [1] = target: T1, epithelial cell adhesion molecule …; assay: binding to EpCAM-expressing cells; method not stated
# [2] = 50 μg/kg of amanitin, single i.p. injection, PC-3 tumor bearing mice
# [3] = 50 μg/kg of amanitin, single i.p. injection, BxPC-3
molecule,measurement,setting,value
α-Amanitin-glutarate-huHEA125 [huHEA125-amanitin],tumor growth,"PC-3 tumor xenografts; 50 μg/kg of amanitin, single i.p. injection, PC-3",strongly retarded
same,body weight of the mice,PC-3 tumor xenografts; [2],No decrease in the body weight
same,tolerability,PC-3 tumor xenografts; [2],well tolerated
same,day from which tumor volume regressed dramatically,BxPC-3 tumor xenografts; [3],7 days
same,mice responding to treatment,BxPC-3 tumor xenografts; [3],All mice responded to treatment
same,tumor growth,BxPC-3 tumor xenografts; [3],strongly inhibited
same,body weight of the mice,"BxPC-3 tumor xenografts; 50 μg/kg of amanitin, single i.p. injection, BxPC-3 tumor bearing mice",neither a decrease in body weight
same,mice with tumor completely eradicated,"BxPC-3 tumor xenografts; 50 μg/kg of amanitin, single i.p. injection, day 16, BxPC-3",50%
same,tolerability,"BxPC-3 tumor xenografts; 50 μg/kg of amanitin, single intraperitoneal injection, BxPC-3 tumor bearing mice",well tolerated
huHEA125: chimeric anti-EpCAM antibody: mouse HEA125 variable domains with human kappa constant light chain and human IgG1 constant heavy chain,tumor volume increase,"PC-3 tumor xenografts; 15 mg/kg single i.p. injection, day 10, PC-3, FIG. 10",approximately 550%
same,tumor volume increase,"BxPC-3 tumor xenografts; 15 mg/kg single i.p. injection, day 16, BxPC-3, FIG. 9",approximately 880%
amanitin,Kd,RNA-polymerase II,3 nM
B1,Kd,[1],2.2 nM
